In this test the target is T1, CypB (Homo sapiens, UniProt P23284).
T1 construct: hexahistidine tag (His-Tag) (C); made in house; host or cells: E. coli C41(DE3)
The test is described as follows: biochemical. Conditions: PPIase enzyme assay, 20 °C, mean±s.d.; read-out: CypB IC50. The format is biochemical. As for the experimental part: CypA and CypB proteins carrying a hexahistidine tag (His-Tag) at their carboxy terminus were expressed in E. coli and purified. Briefly, cultures of C41(DE3) cells were grown at 37 °C for 1 h until the culture reached an OD of 0.6 at 600 nm and then induced with 1 mM isopropyl-β-D-thiogalactopyranoside for 4 h at 37 °C (CypA) or overnight at 22 °C (CypB). Cell pellets were resuspended in a lysis buffer 20 mM NaH2PO4 pH 7.8, 300 mM NaCl, 7 mM β-mercaptoethanol, 1 mg ml^−1 lysozyme, 0.1 U μl^−1 desoxyribonuclease and complete protease inhibitor tablets (Roche Diagnostics Corporation, Indianapolis, Indiana). […] The bound protein was eluted in 1 ml fractions with a buffer composed of 20 mM NaH2PO4 pH 7.8, 300 mM NaCl, 250 mM imidazole, 7 mM β-mercaptoethanol and 10% glycerol, monitored by the Bradford colorimetric assay. The purity of each cyclophilin was determined by Coomassie-stained SDS–PAGE analysis.

From publication PMC5036131, “Fragment-based discovery of a new family of non-peptidic small-molecule cyclophilin inhibitors with potent antiviral activities” (Nature Communications, 2016) come the findings set out here.

T1 sequence (P23284 34-216): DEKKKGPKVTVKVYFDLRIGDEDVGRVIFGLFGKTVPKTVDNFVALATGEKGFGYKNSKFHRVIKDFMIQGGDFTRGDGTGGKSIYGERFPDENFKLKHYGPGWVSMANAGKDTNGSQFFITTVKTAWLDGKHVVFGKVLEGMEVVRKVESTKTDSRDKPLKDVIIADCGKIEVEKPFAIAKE

The IC50 is the concentration that inhibits the measured activity by half. Take `CSCCC(NC(=O)NCc1ccc(N)cc1)C(=O)N1CCCC1c1ccccc1SC.O=C(O)C(F)(F)F` (stereo not shown) [Compound 30]: the IC50 was 1900 ± 1500 nM.
